Assay results reported in patent publication US9650366B2, “Heterocycle-substituted pyridyl benzothiophenes as kinase inhibitors” (Allergan, Inc., priority 2014, dated 2017).

Key:
Format in all cases: biochemical
human GST-PKR = human GST-PKR (Homo sapiens (Human), UniProt P19525); experiment: PKR KinaseGlo Assay; conditions: recombinant human GST-PKR, 6.6 uM ATP
Description: Commercially available recombinant human GST-PKR (SignalChem, Canada; 1.5 uM-2 uM stock) is diluted to 500 nM in assay buffer (20 mM Tris-HCl, pH 7.2, 10 mM KCl, 10 mM MgCl2, 10% glycerol). Preactivated PKR is dispensed to 384/96-well black plates at 3.125/12.5 uls/well using the liquid handler Janus. Appropriate dilutions of inhibitors are added to 384/96-well plate followed by 6.6 uM ATP (final) and incubated for 10 minutes at room temperature. The remaining ATP/well is determined by adding 6.25/25 uls/well Kinase-Glo assay mix (Promega) and luminescence is measured on EnVision luminescence plate reader (integration time, 0.2 sec; Perkin-Elmer, Massachusetts, USA). The % inhibition for the compounds is calculated using ATP only (100% inhibition) and PKR+ATP (0% inhibition). IC50 values are determined by plotting % activity versus inhibitor concentration. Curves are fitted using Activity base XLfit (IDBS, UK) using the formula—
4 Parameter Logistic Model
fit=(A+((B−A)/(1+(10^((C−x)*D))))) inv=(C−(log(((B−A)/(y−A))−1)/D)) res=(y−fit)

PDGFRβ = PDGFRβ (Homo sapiens (Human), UniProt P09619); experiment: PDGFRβ Kinase Assay; conditions: purified cytoplasmic domain PDGFR-b protein, 36 μM ATP
PDGFRβ, sequence (P09619 554-1106): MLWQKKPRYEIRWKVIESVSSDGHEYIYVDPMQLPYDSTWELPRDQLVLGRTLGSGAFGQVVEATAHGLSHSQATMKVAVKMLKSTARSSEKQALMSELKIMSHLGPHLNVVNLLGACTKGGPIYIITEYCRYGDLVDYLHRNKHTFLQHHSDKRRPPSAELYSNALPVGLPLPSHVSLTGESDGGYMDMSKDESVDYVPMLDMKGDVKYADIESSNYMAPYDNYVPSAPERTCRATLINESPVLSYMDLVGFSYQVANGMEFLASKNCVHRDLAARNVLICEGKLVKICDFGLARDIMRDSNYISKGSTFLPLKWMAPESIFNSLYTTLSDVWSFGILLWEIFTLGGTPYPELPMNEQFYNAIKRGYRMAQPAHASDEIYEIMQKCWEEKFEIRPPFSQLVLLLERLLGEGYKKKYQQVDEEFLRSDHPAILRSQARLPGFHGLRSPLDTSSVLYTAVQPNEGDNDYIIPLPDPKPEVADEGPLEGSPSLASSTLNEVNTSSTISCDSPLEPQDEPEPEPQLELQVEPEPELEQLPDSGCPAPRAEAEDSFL
Description: Biochemical PDGFRβ kinase assays were performed in 96 well microtiter plates that were coated overnight with 75 μg of poly-Glu-Tyr (4:1) in 10 mM Phosphate Buffered Saline (PBS), pH 7.4. The coated plates were washed with 2 mls per well PBS+0.05% Tween-20 (PBS-T), blocked by incubation with PBS containing 1% BSA, then washed with 2 mls per well PBS-T prior to starting the reaction. Reactions were carried out in 100 μL reaction volumes containing 36 μM ATP in kinase buffer (50 mM Hepes buffer pH 7.4, 20 mM MgCl2, 0.1 mM MnCl2 and 0.2 mM Na3VO4). Test compounds were reconstituted in 100% DMSO and added to the reaction to give a final DMSO concentration of 5%. Reactions were initiated by the addition 20 ul per well of kinase buffer containing 200-300 ng purified cytoplasmic domain PDGFR-b protein (Millipore). Following a 60 minute incubation at 30° C., the reactions were washed 2 mls per well PBS-T. 100 μl of a monoclonal anti-phosphotyrosine antibody-peroxidase conjugate diluted 1:10,000 in PBS-T was added to the wells for 30 minutes. […] The reaction was terminated by the addition of 100 μl of 2.5N H2SO4 to each well and read using a microplate ELISA reader set at 492 nm. IC50 values for compound inhibition were calculated directly from graphs of optical density (arbitrary units) versus compound concentration following subtraction of blank values.

VEGFR2 (KDR) = VEGFR2 (KDR) (Homo sapiens (Human), UniProt P35968); experiment: VEGFR2 Kinase Assay; conditions: purified cytoplasmic domain KDR protein, 2.7 μM ATP
VEGFR2 (KDR), sequence (P35968 786-1356): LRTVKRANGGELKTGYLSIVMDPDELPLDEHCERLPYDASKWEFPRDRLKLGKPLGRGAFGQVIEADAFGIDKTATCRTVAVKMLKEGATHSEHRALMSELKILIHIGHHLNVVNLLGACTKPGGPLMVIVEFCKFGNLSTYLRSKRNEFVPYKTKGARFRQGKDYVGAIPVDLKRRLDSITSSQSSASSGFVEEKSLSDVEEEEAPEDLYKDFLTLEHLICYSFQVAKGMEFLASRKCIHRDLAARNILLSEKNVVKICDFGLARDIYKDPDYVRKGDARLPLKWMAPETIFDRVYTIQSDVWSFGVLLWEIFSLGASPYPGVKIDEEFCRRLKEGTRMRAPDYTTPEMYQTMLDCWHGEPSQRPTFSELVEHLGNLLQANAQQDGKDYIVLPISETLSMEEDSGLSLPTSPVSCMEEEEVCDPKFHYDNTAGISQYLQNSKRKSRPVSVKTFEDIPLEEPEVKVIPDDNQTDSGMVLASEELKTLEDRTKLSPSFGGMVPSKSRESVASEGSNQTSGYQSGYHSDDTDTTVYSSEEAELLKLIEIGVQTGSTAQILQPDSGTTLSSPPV
Description: Biochemical KDR kinase assays were performed in 96 well microtiter plates that were coated overnight with 75 μg/well of poly-Glu-Tyr (4:1) in 10 mM Phosphate Buffered Saline (PBS), pH 7.4. The coated plates were washed with 2 mls per well PBS+0.05% Tween-20 (PBS-T), blocked by incubation with PBS containing 1% BSA, then washed with 2 mls per well PBS-T prior to starting the reaction. Reactions were carried out in 100 μL reaction volumes containing 2.7 μM ATP in kinase buffer (50 mM Hepes buffer pH 7.4, 20 mM MgCl2, 0.1 mM MnCl2 and 0.2 mM Na3VO4). Test compounds were reconstituted in 100% DMSO and added to the reaction to give a final DMSO concentration of 5%. Reactions were initiated by the addition 20 ul per well of kinase buffer containing 200-300 ng purified cytoplasmic domain KDR protein (BPS Bioscience, San Diego, Calif.). Following a 15 minute incubation at 30° C., the reactions were washed 2 mls per well PBS-T. 100 μl of a monoclonal anti-phosphotyrosine antibody-peroxidase conjugate diluted 1:10,000 in PBS-T was added to the wells for 30 minutes. Following a 2 mls per well wash with PBS-Tween-20, 100 μl of 0-Phenylenediamine Dihydrochloride in phosphate-citrate buffer, containing urea hydrogen peroxide, was added to the wells for 7-10 minutes as a colorimetric substrate for the peroxidase. The reaction was terminated by the addition of 100 μl of 2.5N H2SO4 to each well and read using a microplate ELISA reader set at 492 nm. IC50 values for compound inhibition were calculated directly from graphs of optical density (arbitrary units) versus compound concentration following subtraction of blank values.

human GST-PKR, sequence (P19525 whole entry): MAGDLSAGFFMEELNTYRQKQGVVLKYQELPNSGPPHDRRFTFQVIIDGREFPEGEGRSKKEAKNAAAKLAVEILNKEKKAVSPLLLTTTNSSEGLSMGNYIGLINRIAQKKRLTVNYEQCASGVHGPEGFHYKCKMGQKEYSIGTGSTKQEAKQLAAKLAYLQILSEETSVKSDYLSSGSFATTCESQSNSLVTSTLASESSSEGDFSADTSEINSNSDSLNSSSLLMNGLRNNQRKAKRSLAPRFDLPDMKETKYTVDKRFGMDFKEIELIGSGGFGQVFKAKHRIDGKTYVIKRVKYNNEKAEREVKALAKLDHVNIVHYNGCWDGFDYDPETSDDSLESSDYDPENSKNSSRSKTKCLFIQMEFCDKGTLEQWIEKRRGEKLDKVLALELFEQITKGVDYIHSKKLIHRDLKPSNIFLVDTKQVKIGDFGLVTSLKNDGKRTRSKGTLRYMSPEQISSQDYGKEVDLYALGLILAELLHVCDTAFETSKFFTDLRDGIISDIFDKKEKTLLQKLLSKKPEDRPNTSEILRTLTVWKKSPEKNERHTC

IC50 (human GST-PKR) | IC50 (PDGFRβ) | IC50 (VEGFR2 (KDR)) | Compound
727 nM |  |  | O=C(Nc1ccc(Cl)c(C(F)(F)F)c1)Nc1ccc2sc(-c3cncc(-c4nn[nH]n4)c3)cc2c1 [Example 1, 1-[4-chloro-3-(trifluoromethyl)phenyl]-3-{2-[5-(2H-tetrazol-5-yl)pyridin-3-yl]-1-benzothien-5-yl}urea]
140 nM |  |  | Nc1ncc(-c2nn[nH]n2)cc1-c1cc2cc(NC(=O)Nc3ccc(Cl)c(C(F)(F)F)c3)ccc2s1 [Example 2, 1-{2-[2-amino-5-(2H-tetrazol-5-yl)pyridin-3-yl]-1-benzothien-5-yl}-3-[4-chloro-3-(trifluoromethyl)phenyl]urea]
39 nM |  |  | Nc1ncc(-c2nnn(CCCO)n2)cc1-c1cc2cc(NC(=O)Nc3ccc(Cl)c(C(F)(F)F)c3)ccc2s1 [Example 3, 1-(2-{2-amino-5-[2-(3-hydroxypropyl)-2H-tetrazol-5-yl]pyridin-3-yl}-1-benzothien-5-yl)-3-[4-chloro-3-(trifluoromethyl)phenyl]urea]
99 nM |  |  | Nc1ncc(-c2nnn(CCCO)n2)cc1-c1cc2cc(NC(=O)Nc3ccc(F)c(C(F)(F)F)c3)ccc2s1 [Example 4, 1-(2-{2-amino-5-[2-(3-hydroxypropyl)-2H-tetrazol-5-yl]pyridin-3-yl}-1-benzothien-5-yl)-3-[4-fluoro-3-(trifluoromethyl)phenyl]urea]
76 nM |  |  | Nc1ncc(-c2nnn(CCCO)n2)cc1-c1cc2cc(NC(=O)Nc3cc(F)cc(C(F)(F)F)c3)ccc2s1 [Example 5, 1-(2-{2-amino-5-[2-(3-hydroxypropyl)-2H-tetrazol-5-yl]pyridin-3-yl}-1-benzothien-5-yl)-3-[3-fluoro-5-(trifluoromethyl)phenyl]urea]
66 nM |  |  | Nc1ncc(-c2nnn(CCCO)n2)cc1-c1cc2cc(NC(=O)Nc3cc(C(F)(F)F)cc(C(F)(F)F)c3)ccc2s1 [Example 6, 1-(2-{2-amino-5-[2-(3-hydroxypropyl)-2H-tetrazol-5-yl]pyridin-3-yl}-1-benzothien-5-yl)-3-[3,5-bis(trifluoromethyl)phenyl]urea]
82 nM |  |  | Nc1ncc(-c2nnn(CCO)n2)cc1-c1cc2cc(NC(=O)Nc3ccc(Cl)c(C(F)(F)F)c3)ccc2s1 [Example 8, 1-(2-{2-amino-5-[2-(2-hydroxyethyl)-2H-tetrazol-5-yl]pyridin-3-yl}-1-benzothien-5-yl)-3-[4-chloro-3-(trifluoromethyl)phenyl]urea]
> 10000 nM | 21 nM | 5 nM | Cc1ccoc1C(=O)Nc1cccc(C#Cc2cncc(-c3nnn(CCCO)n3)c2)c1 [Example 9, N-[3-({5-[2-(3-hydroxypropyl)-2H-tetrazol-5-yl]pyridin-3-yl}ethynyl)phenyl]-3-methyl-2-furamide]
 |  | 7 nM | Cc1cccc(C(=O)Nc2cccc(C#Cc3cncc(-c4nnn(CCCO)n4)c3)c2)c1 [Example 10, N-[3-({5-[2-(3-hydroxypropyl)-2H-tetrazol-5-yl]pyridin-3-yl}ethynyl)phenyl]-3-methylbenzamide]
158 nM |  |  | Nc1ncc(-c2nnn(CCCO)n2)cc1C#Cc1cccc(NC(=O)Nc2ccc(Cl)c(C(F)(F)F)c2)c1 [Example 11, 1-[3-({2-amino-5-[2-(3-hydroxypropyl)-2H-tetrazol-5-yl]pyridin-3-yl}ethynyl)phenyl]-3-[4-chloro-3-(trifluoromethyl)phenyl]urea]
> 10000 nM |  | 8 nM | O=C(Nc1ccc(C#Cc2cncc(-c3nnn(CCCO)n3)c2)cc1)Nc1cc(C(F)(F)F)ccc1F [Example 12, 1-[2-fluoro-5-(trifluoromethyl)phenyl]-3-[4-({5-[2-(3-hydroxypropyl)-2H-tetrazol-5-yl]pyridin-3-yl}ethynyl)phenyl]urea]
558 nM |  |  | Nc1ncc(-c2ncccn2)cc1-c1cc2cc(NC(=O)Nc3ccc(Cl)c(C(F)(F)F)c3)ccc2s1 [Example 13, 1-[2-(2-amino-5-pyrimidin-2-ylpyridin-3-yl)-1-benzothien-5-yl]-3-[4-chloro-3-(trifluoromethyl)phenyl]urea]
301 nM |  |  | Nc1ncc(-c2cnccn2)cc1-c1cc2cc(NC(=O)Nc3ccc(Cl)c(C(F)(F)F)c3)ccc2s1 [Example 14, 1-[2-(2-amino-5-pyrazin-2-ylpyridin-3-yl)-1-benzothien-5-yl]-3-[4-chloro-3-(trifluoromethyl)phenyl]urea]
